Measurements reported in patent publication US12077503B2, “Substituted cyclic amides and their use as herbicides” (FMC CORPORATION, priority 2015, dated 2024).

What was measured:
Format in all cases: in vivo
[1] = tested on: Kochia (Kochia scoparia); assay: Test A preemergence; settings: Bassia scoparia, pre-emergence, 240 h, Preemergence; for pest or weed control at 31 g/ha: 31 g ai/ha, 0 to 100 scale where 0 is no effect and 100 is complete control, read-out: Kochia plant response rating; for pest or weed control at 125 g/ha: 125 g ai/ha, visual injury rating after approximately 10 d, read-out: Kochia plant response rating (0 to 100 scale, 0 is no effect, 100 is complete control)
How it was run: (§1)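 Ratings of 0 (no effect) to 100 (complete control) come from visual comparison with untreated controls roughly 10 d after treatment. Test chemicals, formulated in a non-phytotoxic solvent mixture with surfactant, were applied either as a preemergence directed soil spray on seeded soil or postemergence to one- to two-leaf plants 2 to 10 cm tall.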

[2] = tested on: barnyardgrass (Echinochloa crus-galli); assay: Test A preemergence; settings: Echinochloa crus-galli, pre-emergence, 240 h, Preemergence; for pest or weed control at 125 g/ha: 125 g ai/ha, visual injury rating after approximately 10 d, read-out: Barnyardgrass plant response rating (0 to 100 scale, 0 is no effect, 100 is complete control); for pest or weed control at 31 g/ha: 31 g ai/ha, 0 to 100 scale (0 no effect, 100 complete control), read-out: Plant response rating, Barnyardgrass
How it was run: as §1

[3] = tested on: giant foxtail (Setaria faberii); assay: Test A preemergence; settings: Setaria faberi, pre-emergence, 240 h, Preemergence; for pest or weed control at 125 g/ha: 125 g ai/ha, visual injury rating after approximately 10 d, read-out: Foxtail, Giant plant response rating (0 to 100 scale, 0 is no effect, 100 is complete control); for pest or weed control at 31 g/ha: 31 g ai/ha, 0 to 100 scale (0 no effect, 100 complete control), read-out: Plant response rating, Foxtail, Giant
How it was run: as §1

[4] = tested on: pigweed (Amaranthus retroflexus); assay: Test A preemergence; settings: Amaranthus retroflexus, pre-emergence, 240 h, Preemergence; for pest or weed control at 31 g/ha: 31 g ai/ha, 0 to 100 scale where 0 is no effect and 100 is complete control, read-out: Pigweed plant response rating; for pest or weed control at 125 g/ha: 125 g ai/ha, visual injury rating after approximately 10 d, read-out: Pigweed plant response rating (0 to 100 scale, 0 is no effect, 100 is complete control)
[5] = tested on: ragweed (common ragweed, Ambrosia elatior); assay: Test A preemergence; settings: Ambrosia artemisiifolia, pre-emergence, 240 h, Preemergence; for pest or weed control at 31 g/ha: 31 g ai/ha, 0 to 100 scale where 0 is no effect and 100 is complete control, read-out: Ragweed plant response rating; for pest or weed control at 125 g/ha: 125 g ai/ha, visual injury rating after approximately 10 d, read-out: Ragweed plant response rating (0 to 100 scale, 0 is no effect, 100 is complete control)
How it was run: as §1

[6] = tested on: ryegrass, Italian (Italian ryegrass, Lolium multiflorum); assay: Test A preemergence; settings: Lolium multiflorum, pre-emergence, 240 h, Preemergence; for pest or weed control at 31 g/ha: 31 g ai/ha, 0 to 100 scale where 0 is no effect and 100 is complete control, read-out: Ryegrass, Italian plant response rating; for pest or weed control at 125 g/ha: 125 g ai/ha, visual injury rating after approximately 10 d, read-out: Ryegrass, Italian plant response rating (0 to 100 scale, 0 is no effect, 100 is complete control)
How it was run: as §1

[7] = tested on: Galium (catchweed bedstraw, Galium aparine); assay: Test A postemergence; settings: Galium, post-emergence, 240 h, Postemergence, read-out: Plant response rating, Galium; for pest or weed control at 125 g/ha: 125 g ai/ha, visual injury after approximately 10 d, 0 to 100 scale where 0 is no effect and 100 is complete control; for pest or weed control at 31 g/ha: 31 g ai/ha, visual injury after approx. 10 d, 0 to 100 scale, 0 no effect, 100 complete control
How it was run: as §1

[8] = tested on: Kochia (Kochia scoparia); assay: Test A postemergence; settings: Bassia scoparia, post-emergence, 240 h, Postemergence, read-out: Plant response rating, Kochia; for pest or weed control at 125 g/ha: 125 g ai/ha, visual injury after approximately 10 d, 0 to 100 scale where 0 is no effect and 100 is complete control; for pest or weed control at 31 g/ha: 31 g ai/ha, visual injury after approx. 10 d, 0 to 100 scale, 0 no effect, 100 complete control
How it was run: as §1

[9] = tested on: barnyardgrass (Echinochloa crus-galli); assay: Test A postemergence; settings: Echinochloa crus-galli, post-emergence, 240 h, Postemergence, read-out: Plant response rating, Barnyardgrass; for pest or weed control at 125 g/ha: 125 g ai/ha, visual injury after approximately 10 d, 0 to 100 scale where 0 is no effect and 100 is complete control; for pest or weed control at 31 g/ha: 31 g ai/ha, visual injury after approx. 10 d, 0 to 100 scale, 0 no effect, 100 complete control
How it was run: as §1

[10] = tested on: blackgrass (Alopecurus myosuroides); assay: Test A postemergence; settings: Alopecurus myosuroides, post-emergence, 240 h, Postemergence, read-out: Plant response rating, Blackgrass; for pest or weed control at 125 g/ha: 125 g ai/ha, visual injury after approximately 10 d, 0 to 100 scale where 0 is no effect and 100 is complete control; for pest or weed control at 31 g/ha: 31 g ai/ha, visual injury after approx. 10 d, 0 to 100 scale, 0 no effect, 100 complete control
How it was run: as §1

[11] = tested on: corn (Zea mays); assay: Test A postemergence; settings: Zea mays, post-emergence, 240 h, Postemergence; for Corn plant response rating (crop injury, 0 = no effect, 100 = complete kill) at 125 g/ha: 125 g ai/ha, visual injury after approximately 10 d, 0 to 100 scale where 0 is no effect and 100 is complete control; for Corn plant response rating (crop injury, 0 = no effect, 100 = complete kill) at 31 g/ha: 31 g ai/ha, visual injury after approx. 10 d, 0 to 100 scale, 100 complete control
How it was run: as §1

[12] = tested on: giant foxtail (Setaria faberii); assay: Test A postemergence; settings: Setaria faberi, post-emergence, 240 h, Postemergence, read-out: Plant response rating, Foxtail, Giant; for pest or weed control at 125 g/ha: 125 g ai/ha, visual injury after approximately 10 d, 0 to 100 scale where 0 is no effect and 100 is complete control; for pest or weed control at 31 g/ha: 31 g ai/ha, visual injury after approx. 10 d, 0 to 100 scale, 0 no effect, 100 complete control
How it was run: as §1

[13] = tested on: pigweed (Amaranthus retroflexus); assay: Test A postemergence; settings: Amaranthus retroflexus, post-emergence, 240 h, Postemergence, read-out: Plant response rating, Pigweed; for pest or weed control at 125 g/ha: 125 g ai/ha, visual injury after approximately 10 d, 0 to 100 scale where 0 is no effect and 100 is complete control; for pest or weed control at 31 g/ha: 31 g ai/ha, visual injury after approx. 10 d, 0 to 100 scale, 0 no effect, 100 complete control
How it was run: as §1

[14] = tested on: ragweed (common ragweed, Ambrosia elatior); assay: Test A postemergence; settings: Ambrosia artemisiifolia, post-emergence, 240 h, Postemergence, read-out: Plant response rating, Ragweed; for pest or weed control at 125 g/ha: 125 g ai/ha, visual injury after approximately 10 d, 0 to 100 scale where 0 is no effect and 100 is complete control; for pest or weed control at 31 g/ha: 31 g ai/ha, visual injury after approx. 10 d, 0 to 100 scale, 0 no effect, 100 complete control
How it was run: as §1

[15] = tested on: ryegrass, Italian (Italian ryegrass, Lolium multiflorum); assay: Test A postemergence; settings: Lolium multiflorum, post-emergence, 240 h, Postemergence, read-out: Plant response rating, Ryegrass, Italian; for pest or weed control at 125 g/ha: 125 g ai/ha, visual injury after approximately 10 d, 0 to 100 scale where 0 is no effect and 100 is complete control; for pest or weed control at 31 g/ha: 31 g ai/ha, visual injury after approx. 10 d, 0 to 100 scale, 0 no effect, 100 complete control
How it was run: as §1

[16] = tested on: wheat (Triticum aestivum); assay: Test A postemergence; settings: Triticum aestivum, post-emergence, 240 h, Postemergence, read-out: Plant response rating, Wheat; for plant injury at 125 g/ha: 125 g ai/ha, visual injury after approximately 10 d, 0 to 100 scale where 0 is no effect and 100 is complete control; for plant injury at 31 g/ha: 31 g ai/ha, visual injury after approx. 10 d, 0 to 100 scale, 0 no effect, 100 complete control
How it was run: as §1

[17] = tested on: barnyardgrass (Echinochloa crus-galli); assay: Test B flooded paddy test; settings: Echinochloa crus-galli, 250 g ai/ha, Flood; 0 to 100 scale where 0 is no effect and 100 is complete control; read-out: Barnyardgrass plant response rating
How it was run: (§2)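 Percent control, visually estimated after 13–15 d in the greenhouse on a 0–100 basis, compares treated pots with untreated ones; compound was put into paddy water 3 cm above the soil when plants had two leaves.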

[18] = tested on: ducksalad (Heteranthera limosa); assay: Test B flooded paddy test; settings: Heteranthera limosa, 250 g ai/ha, Flood; 0 to 100 scale where 0 is no effect and 100 is complete control; read-out: Ducksalad plant response rating
How it was run: as §2

[19] = tested on: rice (Oryra sativa); assay: Test B flooded paddy test; settings: Oryza sativa, 250 g ai/ha, Flood; 0 to 100 scale where 0 is no effect and 100 is complete control; read-out: Rice plant response rating
How it was run: as §2

[20] = tested on: sedge, umbrella (small-flower umbrella sedge, Cyperus difformis); assay: Test B flooded paddy test; settings: Cyperus difformis, 250 g ai/ha, Flood; 0 to 100 scale where 0 is no effect and 100 is complete control; read-out: Sedge, Umbrella plant response rating
How it was run: as §2

Row | SMILES | pest or weed control at 31 g/ha [1] [%] | pest or weed control at 125 g/ha [1] [%] | pest or weed control at 125 g/ha [2] [%] | pest or weed control at 31 g/ha [2] [%] | pest or weed control at 125 g/ha [3] [%] | pest or weed control at 31 g/ha [3] [%] | pest or weed control at 31 g/ha [4] [%] | pest or weed control at 125 g/ha [4] [%] | pest or weed control at 31 g/ha [5] [%] | pest or weed control at 125 g/ha [5] [%] | pest or weed control at 31 g/ha [6] [%] | pest or weed control at 125 g/ha [6] [%] | pest or weed control at 125 g/ha [7] [%] | pest or weed control at 31 g/ha [7] [%] | pest or weed control at 125 g/ha [8] [%] | pest or weed control at 31 g/ha [8] [%] | pest or weed control at 125 g/ha [9] [%] | pest or weed control at 31 g/ha [9] [%] | pest or weed control at 125 g/ha [10] [%] | pest or weed control at 31 g/ha [10] [%] | also measured
1 | O=C(Nc1ccc(F)c(F)c1F)[C@H]1C(=O)N(C2CC2)CC[C@@H]1c1ccc(F)cc1 [Compound 1004] | 0 | 0 | 0 | 0 | 30 | 0 | 0 | 0 | 0 | 0 | 0 | 0 | 0 | 0 | 0 | 0 | 0 | 0 | 0 | 0 | Corn plant response rating (crop injury, 0 = no effect, 100 = complete kill) at 125 g/ha [11]: 0%; Corn plant response rating (crop injury, 0 = no effect, 100 = complete kill) at 31 g/ha [11]: 0%; pest or weed control at 125 g/ha [12]: 0%; pest or weed control at 31 g/ha [12]: 0%; pest or weed control at 125 g/ha [13]: 0%; pest or weed control at 31 g/ha [13]: 0%; pest or weed control at 125 g/ha [14]: 0%; pest or weed control at 31 g/ha [14]: 0%; pest or weed control at 125 g/ha [15]: 0%; pest or weed control at 31 g/ha [15]: 0%; plant injury at 125 g/ha [16]: 0%; plant injury at 31 g/ha [16]: 0%; pest or weed control at 250 g/ha [17]: 0%; pest or weed control at 250 g/ha [18]: 60%; pest or weed control at 250 g/ha [19]: 0%; pest or weed control at 250 g/ha [20]: 0%
2 | O=C(Nc1cccc(Cl)c1F)[C@H]1C(=O)N(C2CC2)CC[C@@H]1c1ccc(F)cc1 [Compound 1006] | 0 | 0 | 0 | 0 | 0 | 0 | 0 | 0 | 0 | 0 | 0 | 0 | 0 | 0 | 0 | 0 | 0 | 0 | 0 | 0 | Corn plant response rating (crop injury, 0 = no effect, 100 = complete kill) at 125 g/ha [11]: 10%; Corn plant response rating (crop injury, 0 = no effect, 100 = complete kill) at 31 g/ha [11]: 0%; pest or weed control at 125 g/ha [12]: 0%; pest or weed control at 31 g/ha [12]: 0%; pest or weed control at 125 g/ha [13]: 0%; pest or weed control at 31 g/ha [13]: 0%; pest or weed control at 125 g/ha [14]: 10%; pest or weed control at 31 g/ha [14]: 10%; pest or weed control at 125 g/ha [15]: 0%; pest or weed control at 31 g/ha [15]: 0%; plant injury at 125 g/ha [16]: 0%; plant injury at 31 g/ha [16]: 0%; pest or weed control at 250 g/ha [17]: 0%; pest or weed control at 250 g/ha [18]: 0%; pest or weed control at 250 g/ha [19]: 0%; pest or weed control at 250 g/ha [20]: 0%
